Non-standard residues stand in square brackets, D forms with d. Residues, ends and D or L forms follow the SMILES beside them. *: point of attachment. Dolaproine = CO[C@@H]([C@@H]1CCCN1)[C@@H](C)C(=O)O; Dil = CC[C@H](C)[C@H](NC)[C@@H](CC(=O)O)OC; X1 = C[C@@H](N*)[C@@H](O)c1ccccc1; NMeV = CN[C@H](C(=O)O)C(C)C
Experiments:
[1] = molecular target: T1, MN (Homo sapiens, UniProt Q16790); experiment: Immunoprecipitation of biotinylated cell surface proteins; type: binding; design: incubated with cell lysates of MN+ (Pc3 mm2) and MN− (DLD-1) cell lines that had been selectively labeled with biotin; endogenous in cells; host or cells: PC-3 mm2 (MN+); DLD-1 as the MN- control; settings: biotin-labeled lysates of MN+ (Pc3 mm2) and MN− (DLD-1) cell lines
Method: To further explore specificity, various candidate antibodies including the antibody portion of 3ee9/MMAE (3ee9) and the reference antibody G250 were incubated with cell lysates of MN+ (Pc3 mm2) and MN− (DLD-1) cell lines that had been selectively labeled with biotin. Complexes between the antibodies and cellular proteins were immuno-precipitated and the co-precipitated antigens visualized using immunoblots developed with enzyme-linked streptavidin.

[2] = molecular target: T1, MN; experiment: Surface plasmon resonance (BIAcore) binding to MN protein; design: The MN protein represents the entire extra-cellular domain of the protein with a C-terminal histag for purification; His tag (C); made in house; host or cells: HKB-11 (mammalian cell line); settings: read-out: kD for purified MN protein
Method: The binding interactions between MN protein and the antibodies of this invention were analyzed using surface plasmon resonance technology on a BIAcore 3000 instrument (BIAcore, Uppsala, Sweden). For the binding of full-length IgGs (1e4, 1aa1, and 3ee9), goat anti-human IgG Fc was covalently coupled to the CM5 biosensor chip at high density using a standard amine coupling kit (BIAcore, Uppsala, Sweden). A capture assay was then used to bind these IgG to the anti-human IgG Fc-immobilized surface, aiming for a 300 response unit BIAcore signal. […] After ligand binding, the flow rate was then increased to 25 μl/min and various concentrations of MN analyte (e.g., range of 50 nM to 1 nM) were flowed over the surface for 10 minutes such that the association phase could be monitored. […] The binding of Fabs to MN was similarly determined except that an anti-human-Fab IgG was immobilized onto the chip and used to capture the Fabs prior to the assessment of MN binding.
Binding interactions between HKB11-expressed human MN protein and human full-length anti-MN MAbs were analyzed using surface plasmon resonance technology on a BIAcore 3000 instrument (BIAcore, Uppsala, Sweden). […] After ligand binding, flow rate was increased to 25 ul/min and MN analyte (50 nM to 1 nM) was flowed over the surface for 10 min such that the association phase could be monitored. […]

[3] = test system: Colo-205 CRC xenograft; experiment: Colo-205 subcutaneous xenograft model; settings: Colo-205
Description: The in vivo anti-tumor effect of 3ee9/MMAE was examined in 6 different human xenograft tumor models. These models were established through subcutaneous implantation of human tumor cells into female athymic NCr (nu/nu) mice (Taconic, N.Y.). The human tumor xenograft models evaluated included the MaTu human mammary carcinoma model, the HT-29 and Colo-205 human colo-rectal carcinoma (CRC) models, PC3MM2 prostate carcinoma model, the HCT-15 multi-drug resistant (P-gp) CRC model, and the MiaPaCa2 human pancreatic model. PBS was used as a vehicle, and dosing solutions were prepared fresh daily. The dosing volume was 0.1 mL/10 g (10 mL/kg).
The length and width of each tumor were measured using an electronic caliper 2-3 times per week, and tumor weights (mg) were calculated based on the formula of [length (mm)×width (mm)^2]/2. All data, including daily observations, obtained throughout the course of the study were documented in Anti-tumor Data Acquisition System (ADAS). […] Tumor growth inhibition (TGI) was calculated as (1-T/C)×100, where T=final tumor weights from a treated group after the last dose, and C=final tumor weights from the control group after the last dose. In addition, anti-tumor efficacy was measured as the incidence of responses (or responders or regressions) defined as tumors with ≦50% of their initial size. A minimum duration of 7 days is required for a response to be considered durable.
The anti-tumor activity of 3ee9/MMAE was next evaluated against human prostate (PC-3 mm2) and CRC (Colo-205) tumor xenografts. Female NCr nu/nu mice were implanted subcutaneously (s.c.) either with 5×10^6 PC3 mm2 or Colo-205 cells. Treatment was initiated when tumors were of an average size of approximately 125-150 mg. The general health of mice was monitored and recorded daily. Tumor dimensions and body weights were recorded twice a week starting with the first day of treatment.
In the PC3 mm2 and Colo-205 studies, 3ee9/MMAE was administered intravenously (i.v.) once every 4th day for a total of 3 injections (Q4Dx3) at doses of 1, 3, 10 and 30 mg/kg and 1.25, 2.5, 5 and 10 mg/kg, respectively.
The feasibility of using 3ee9/MMAE in conjunction with other cancer chemotherapeutic agents was investigated. Xeloda® is used as first line treatment of patients with metastatic colorectal carcinoma. The activity and tolerability of combined therapy using 3ee9/MMAE and Xeloda® was evaluated. 3ee9/MMAE was administered i.v. on a Q4Dx3 schedule and at dose levels of 1.25, 2.5 and 10 mg/kg. Xeloda® was administered orally once daily for 9 days at dose levels of 250 and 500 mg/kg.

[4] = test system: HT-29 human CRC xenograft; experiment: HT-29 subcutaneous xenograft model; type: in vivo, athymic NCr (nu/nu) mice; settings: HT-29; for % Inhibition (1-T/D)*100 (Day 18) / Percent Regressions: Q4D × 3
Method: When tumors reached an average size of ˜120 mg (5 days), treatment was initiated. […] In addition, MMAE was assessed as a free drug at a dose of 0.1, 0.2 and 1 mg/kg. The 0.1 and 0.2 mg/Kg doses of MMAE represent equivalent amounts of this drug to those present on 5 and 10 mg/Kg 3ee9/MMAE respectively.
Anti-tumor effect of 3ee9/MMAE was also assessed in varying schedules, i.e., once a week dosing for total of two doses (Q7Dx2, FIG. 20) and a single dose at the time of staging (Q1Dx1, FIG. 21). In both schedules, 3ee9/MMAE was dosed at 0.625, 1.25, 2.5, 5 and 10 mg/kg.

[5] = test system: HCT-15 multi-drug resistant (P-gp) CRC xenograft; experiment: HCT-15 multi-drug resistant xenograft model; type: in vivo, NCr nu/nu mice; settings: HCT-15 MDR model
Method: To examine the effect of 3ee9/MMAE in a multi-drug resistance model, female NCr nu/nu mice were implanted subcutaneously (s.c.) with 5×10^6 HCT-15 cells. HCT-15 is a multi-drug resistant (MDR) line that over-expresses P-glycoprotein (P-gp). […] 3ee9/MMAE, Taxol, and Gemcitabine were administered when mice had established tumors with mean weight of ˜150 mg. Gemcitabine, a pyrimidine analog that is not a P-gp substrate was used as a positive control.

G250: MN antibody G250, a humanized IgG1 antibody, (Wilex), used as a reference [reference compound]
co-immunoprecipitated proteins (specificity) [1]: selectively bound and co-immunoprecipitated with a single band of the same size as MN | Kd [2]: 5.3 nM

CCCCCOC(=O)Nc1nc(=O)n([C@@H]2O[C@H](C)[C@@H](O)[C@H]2O)cc1F [Xeloda, reference compound]
% Inhibition (T/C) (d 17) ([3]; 250 mg/kg/inj Q1D × 9 PO): 78% | % Regressions ([3]; 250 mg/kg/inj Q1D × 9 PO): 0% | % Weight Loss (d 17) ([3]; 250 mg/kg/inj Q1D × 9 PO): −0.5% | % Inhibition (T/C) (d 17) ([3]; 500 mg/kg/inj Q1D × 9 PO): 86.1% | % Regressions ([3]; 500 mg/kg/inj Q1D × 9 PO): 0% | % Weight Loss (d 17) ([3]; 500 mg/kg/inj Q1D × 9 PO): −5.6% | TGI ([3]; alone 250 mg/kg orally once daily for 9 days): 78% | TGI ([3]; alone 500 mg/kg orally once daily for 9 days): 86% | animals showing regressions ([3]; both dose groups (250 and 500 mg/kg)): zero

CC[C@H](C)[C@@H]([C@@H](CC(=O)N1CCC[C@H]1[C@H](OC)[C@@H](C)C(=O)N[C@H](C)[C@@H](O)c1ccccc1)OC)N(C)C(=O)[C@@H](NC(=O)[C@@H](NC)C(C)C)C(C)C [MMAE, Monomethylauristatin E, reference compound] (H-[NMeV]V[Dil][Dolaproine]-X1)
% Inhibition (1-T/D)*100 (Day 18) ([4]; 0.1 mg/kg): 27% | Percent Regressions ([4]; 0.1 mg/kg): 0% | % Inhibition (1-T/D)*100 (Day 18) ([4]; 0.2 mg/kg): 60% | Percent Regressions ([4]; 0.2 mg/kg): 0% | % Inhibition (1-T/D)*100 (Day 18) ([4]; 1 mg/kg): Toxic | tumor responses ([4]; free drug): did not induce any tumor responses | effect in inhibiting growth ([4]; free drug 0.1 mg/kg): no significant effect | TGI ([4]; free drug 0.2 mg/kg): 60% | lethality ([4]; free drug 1 mg/kg): 50% | tolerability ([4]; free drug 1 mg/kg): considered toxic | tolerability ([4]; free drug 0.1 and 0.2 mg/kg): well tolerated with non-significant, minimal weight loss

CC(=O)O[C@H]1C(=O)[C@@]2(C)[C@H]([C@H](OC(=O)c3ccccc3)[C@]3(O)C[C@H](OC(=O)[C@H](O)[C@@H](NC(=O)c4ccccc4)c4ccccc4)C(C)=C1C3(C)C)[C@]1(OC(C)=O)CO[C@@H]1C[C@@H]2O [Taxol®]
anti-tumor effect [5]: failed to produce any significant anti-tumor effect

Nc1ccn([C@@H]2O[C@H](CO)[C@@H](O)C2(F)F)c(=O)n1 [Gemcitabine]
anti-tumor activity ([5]; 120 mg/kg, i.p., QDx10): highly active

Reference: patent US20120301468A1, “ANTI-MN ANTIBODIES AND METHODS OF USING SAME” (BAYER HEALTHCARE LLC, priority 2005, published 2012)
